Where “and” joins values, the source holds several entries; their conditions need not be identical. Equal entries are not always repeated.
Columns and labels:
[1] = set-up: method as in PMID 23980546, PMID 12499116, PMID 20236705; settings: set value; cited from earlier work
[2] = Half-life estimated by annual decline rates of serum PFAAs (first-order model); format: in vivo, human
Excerpt: Olsen et al.[21] found linear relationship between the logarithm of serum PFAAs concentration and time, and a first order model was adopted to estimate the half-lives of PFAAs. The elimination of PFAAs in humans was also described with the following equation: […]
If we set C(t) as 1/2C0, then the half-life
where k is the elimination rate constant. We calculated k using two approaches in the present study. In the first approach, k is defined as Cltotal/Vd, where Vd stands for the volume of distribution of PFAAs in the human body. Cltotal represents the total daily PFAAs clearance in the human body; for men and women older than 50, it refers to renal clearance, while for young women, it is defined as the sum of menstrual clearance and renal clearance. To keep consistency with other studies, Vd of PFOS and PFHxS were set at 230 mL kg^−1, and Vd of PFOA was set at 170 mL kg^−1 in this study. In the second approach, k is defined as the average annual decline rates of PFAAs in workers who participated in this study.
Serum PFAAs of workers were sequentially measured for 5 years, and they fluctuated during our sampling period, although different serum PFAAs decreased in certain years. […] For PFOA, 31 out of 42 workers decreased in the period of 2011–2012, and the serum PFOA concentration dropped by 41%. […] We assumed that there were no new inputs of PFAAs in these workers, and thus k in Eq (2) was set as the average annual serum PFAA decline rate. The half-lives of PFHxS, PFOA, and PFOS estimated by Eq (2) were 3.6, 1.7, and 1.9 years.

[3] = PFAA concentration in serum of occupational workers (HPLC-ESI/MS/MS); format: in vivo, human; set-up: Serum PFAA level: unit: ng/mL; settings: for Serum concentration, geometric mean: all occupational workers
Description: The selected fluorochemical plant (Henxin Chemical Plant) in this study is one of the largest producers of PFOS-related chemicals in China and is located in Yingcheng, Hubei province. Perfluoroalkyl sulfonic acids (PFSAs) and perfluorotertiary amines are synthesized through an electro-chemical fluorination (ECF) process. We collected paired serum and urine samples from the occupational workers in the plant for five consecutive years, and the sampling activities were carried out in Nov. 2008, Nov. 2009, Nov. 2010, Dec. 2011, and Dec 2012, respectively. The Medical Research Ethics Committee, School of Medicine, Jianghan University, approved the ethics of this study, and all methods were performed in accordance with the relevant guidelines and regulations, moreover, all volunteers gave written informed consent. Demographic information of the donors, including gender, age, length of service, and work assignment, was collected with a questionnaire (Table S1). The sampled population included a total of 302 occupational workers, of which there were 89 female and 213 male participants. In total, 302 serum and 274 urine samples were collected.
The participants were told not to eat breakfast before the sampling, and morning urine samples and blood samples were collected. Serum was separated from the blood by centrifugation at 1100 × g at 4 °C for 10 min and then placed on ice. Serum samples were then transferred to our laboratory on the same day and stored in polypropylene containers at −20 °C until analysis.
All pre-treatment methods and instrument analysis of PFAAs in serum and urine samples are based on previous studies with minor modifications (see Supplementary Information)[3][31]. Based on the PFAA profiles in environmental matrices around the same plant in our previous study, only 3 main PFAAs, PFHxS, PFOA, and PFOS, were analyzed in the obtained serum and urine samples. Instrumental analysis of the PFAAs was performed by a HPLC-ESI/MS/MS system (HPLC: Waters 2695, MS: Waters Quattro Premier XE). The limits of detection (LODs) of PFHxS, PFOA, and PFOS were 0.020, 0.063, and 0.018 ng mL^−1 for serum samples and 0.008, 0.025, and 0.007 ng mL^−1 for urine samples, respectively. A procedural blank was performed for every batch of seven samples, and all of the blank levels were below the LODs. […] Details of quality assurance and quality control of the chemical analysis can be found in the Supplementary Information.

[4] = cited from earlier work
[5] = Electrolytic Department, length of service < 1 year
[6] = Fabric finishing agent department, N 8
[7] = Management Office, length of service 1-3 years
[8] = Management Office, length of service < 1 year
[9] = Management Office, length of service >3 years
[10] = Research Building, length of service 1-3 years
[11] = Research Building, length of service >3 years
[12] = Sulfonation Department, length of service 1-3 years
[13] = Sulfonation Department, length of service < 1 year
[14] = Sulfonation Department, length of service >3 years
[15] = workers with service length 1–3 years
[16] = workers with service length less than 1 year
[17] = workers with service length more than 3 years

For O=C(O)C(F)(F)C(F)(F)C(F)(F)C(F)(F)C(F)(F)C(F)(F)C(F)(F)F [PFOA, perfluorooctanoic acid], the “Vd (volume of distribution in the human body)” value [1] is given as 170 mL/kg, the “Drop of serum concentration” value ([2]; 2011–2012, 42 workers) is given as 41% and the half-life ([2]; human, k = average annual serum decline rate, no new inputs assumed, two time points) is given as 621 days. For the same compound, the “Serum concentration, mean” value ([3]; All workers, N 302) was 1052 ng/mL, the “Serum concentration, median” value ([3]; All workers, N 302) was 427 ng/mL and the “Serum concentration, range” value ([3]; All workers, N 302) was 2.5 to 32000 ng/mL. The “Serum PFAA level” value [3, 5] was 118, the “Serum concentration, mean” value ([3]; Electrolytic department, N 74) was 2337 ng/mL and the “Serum concentration, median” value ([3]; Electrolytic department, N 74) was 1126 ng/mL. For the same compound, the “Serum concentration, range” value ([3]; Electrolytic department, N 74) was 55.9 to 32000 ng/mL, the “Serum concentration, mean” value [3, 6] was 606 ng/mL and the “Serum concentration, median” value [3, 6] was 114 ng/mL. For the same compound, the “Serum concentration, range” value [3, 6] was 51 to 2600 ng/mL, the “Serum PFAA level” value [3, 7] was 48.3 and the “Serum PFAA level” value [3, 8] was 9.9. The “Serum PFAA level” value [3, 9] was 167, the “Serum concentration, mean” value ([3]; Management office, N 92) was 362 ng/mL and the “Serum concentration, median” value ([3]; Management office, N 92) was 101 ng/mL. For the same compound, the “Serum concentration, range” value ([3]; Management office, N 92) was 2.5 to 4380 ng/mL, the “Serum PFAA level” value [3, 10] was 124 and the “Serum PFAA level” value [3, 11] was 276. The “Serum concentration, mean” value ([3]; Research building, N 27) was 404 ng/mL, the “Serum concentration, median” value ([3]; Research building, N 27) was 142 ng/mL and the “Serum concentration, range” value ([3]; Research building, N 27) was 4.7 to 2920 ng/mL. The “Serum PFAA level” value [3, 12] was 371, the “Serum PFAA level” value [3, 13] was 185 and the “Serum PFAA level” value [3, 14] was 896. The “Serum concentration, mean” value ([3]; Sulfonation department, N 101) was 929 ng/mL, the “Serum concentration, median” value ([3]; Sulfonation department, N 101) was 603 ng/mL and the “Serum concentration, range” value ([3]; Sulfonation department, N 101) was 4.9 to 4630 ng/mL. For the same compound, the “Serum concentration, geometric mean” value [3] was 334 ng/mL, the “Average serum concentration (Average ± SD)” value ([3]; female workers, n 89) was 659 ± 743 ng/mL and the concentration at 2008 calendar year ([3]; human, serum, other: occupational exposure, 46 workers sampled at least three times, 2008, read-out: Serum concentration, GM) was 368 ng/mL. For the same compound, the concentration at 2009 calendar year ([3]; human, serum, other: occupational exposure, 46 workers sampled at least three times, 2009, read-out: Serum concentration, GM) was 252 ng/mL, the concentration at 2010 calendar year ([3]; human, serum, other: occupational exposure, 46 workers sampled at least three times, 2010, read-out: Serum concentration, GM) was 622 ng/mL and the concentration at 2011 calendar year ([3]; human, serum, other: occupational exposure, 46 workers sampled at least three times, 2011, read-out: Serum concentration, GM) was 692 ng/mL. The concentration at 2012 calendar year ([3]; human, serum, other: occupational exposure, 46 workers sampled at least three times, 2012, read-out: Serum concentration, GM) was 416 ng/mL, the “Average serum concentration (Average ± SD)” value ([3]; male workers, n 213) was 1,215 ± 2,936 ng mL^−1 and the “Serum concentration, GM” value [3, 15] was 222 ng/mL. The “Serum concentration, GM” value [3, 16] was 68 ng/mL and the “Serum concentration, GM” value [3, 17] was 527 ng/mL.
For O=S(=O)(O)C(F)(F)C(F)(F)C(F)(F)C(F)(F)C(F)(F)C(F)(F)C(F)(F)C(F)(F)F [PFOS, perfluorooctanesulfonate], the “Clrenal values obtained from different sources, range” value [4] is listed as 0.01 to 0.1 mL/day/kg, the “Clrenal, median” value ([4]; fishery employees from Tangxun Lake) is listed as 0.010 mL/day/kg and the “Vd (volume of distribution in the human body)” value [1] is listed as 230 mL/kg. For the same compound, the “Average annual decline rate of serum concentration” value ([2]; 2008 to 2009, 36 workers) was 37%, the “Half-life estimated by annual decline rates” value ([2]; k = average annual serum decline rate, no new inputs assumed, two time points) was 1.9 years and the “Serum concentration, GM” value ([3]; 46 workers sampled at least three times, 2008) was 1751 ng/mL. The “Serum concentration, GM” value ([3]; 46 workers sampled at least three times, 2009) was 1095 ng/mL, the “Serum concentration, GM” value ([3]; 46 workers sampled at least three times, 2012) was 2580 ng/mL and the “Serum concentration, mean” value ([3]; All workers, N 302) was 5624 ng/mL. The “Serum concentration, range” value ([3]; All workers, N 302) was 50.3 to 118000 ng/mL, the “Serum PFAA level” value ([3]; Electrolytic Department, length of service 1-3 years) was 1827 and the “Serum PFAA level” value [3, 5] was 772. For the same compound, the “Serum PFAA level” value ([3]; Electrolytic Department, length of service >3 years) was 1393, the “Serum concentration, mean” value ([3]; Electrolytic department, N 74) was 1909 ng/mL and the “Serum concentration, median” value ([3]; Electrolytic department, N 74) was 1541 ng/mL. The “Serum concentration, range” value ([3]; Electrolytic department, N 74) was 234 to 8501 ng/mL, the “Serum concentration, mean” value [3, 6] was 514 ng/mL and the “Serum concentration, median” value [3, 6] was 267 ng/mL. The “Serum concentration, range” value [3, 6] was 103 to 1890 ng/mL, the “Serum PFAA level” value [3, 7] was 641 and the “Serum PFAA level” value [3, 8] was 140. For the same compound, the “Serum PFAA level” value [3, 9] was 728, the “Serum concentration, mean” value ([3]; Management office, N 92) was 1144 ng/mL and the “Serum concentration, median” value ([3]; Management office, N 92) was 616 ng/mL. The “Serum concentration, range” value ([3]; Management office, N 92) was 50.3 to 7910 ng/mL, the “Serum PFAA level” value [3, 10] was 888 and the “Serum PFAA level” value ([3]; Research Building, length of service < 1 year) was 318. For the same compound, the “Serum PFAA level” value [3, 11] was 890, the “Serum concentration, mean” value ([3]; Research building, N 27) was 1195 ng/mL and the “Serum concentration, median” value ([3]; Research building, N 27) was 736 ng/mL. For the same compound, the “Serum concentration, range” value ([3]; Research building, N 27) was 101 to 7450 ng/mL, the “Serum PFAA level” value [3, 12] was 5463 and the “Serum PFAA level” value [3, 13] was 5174. The “Serum PFAA level” value [3, 14] was 7756, the “Serum concentration, mean” value ([3]; Sulfonation department, N 101) was 14002 ng/mL and the “Serum concentration, median” value ([3]; Sulfonation department, N 101) was 5544 ng/mL. The “Serum concentration, range” value ([3]; Sulfonation department, N 101) was 416 to 118000 ng/mL, the “Serum concentration, geometric mean” value [3] was 1677 ng/mL and the “Average serum concentration (Average ± SD)” value ([3]; female workers, n 89) was 2,221 ± 4,791 ng mL^−1. The “Average serum concentration (Average ± SD)” value ([3]; male workers, n 213) was 7,040 ± 15382 ng mL^−1, the “Serum concentration below which 85 percent of the population lies” value ([3]; present study, workers) was 6775 ng/mL and the “Serum PFOS concentration” value ([3]; serum, sampling year 2008, individual occupational workers) was 853 ng/mL and 83 ng/mL and 463 ng/mL and 635 ng/mL and 357 ng/mL and 25000 ng/mL and 4570 ng/mL and 4540 ng/mL and 460 ng/mL and 3220 ng/mL and 4170 ng/mL and 3160 ng/mL and 2690 ng/mL and 650 ng/mL and 620 ng/mL and 250 ng/mL and 3580 ng/mL and 3030 ng/mL and 1770 ng/mL and 5220 ng/mL and 1970 ng/mL and 3940 ng/mL and 2600 ng/mL and 8430 ng/mL and 7450 ng/mL and 3800 ng/mL and 1450 ng/mL and 1280 ng/mL. For the same compound, the “Serum concentration, GM” value [3, 15] was 1861 ng/mL, the “Serum concentration, GM” value [3, 16] was 782 ng/mL and the “Serum concentration, GM” value [3, 17] was 1876 ng/mL.

Source: PMC5131319, “Occurrence, temporal trends, and half-lives of perfluoroalkyl acids (PFAAs) in occupational workers in China” (Scientific Reports, 2016)
